From patent US12195427B2, “MASP-2 inhibitors and methods of use” (priority 2018, dated 2025)
pKi: −log10 of the molar value.

Target: MASP-2 (CCP1-CCP2-SP) (Homo sapiens (Human), UniProt O00187)
Assay: Enzymatic Assay for MASP-2 (fluorogenic substrate)
Format: biochemical

Sequence of MASP-2 (CCP1-CCP2-SP) (O00187 445-686): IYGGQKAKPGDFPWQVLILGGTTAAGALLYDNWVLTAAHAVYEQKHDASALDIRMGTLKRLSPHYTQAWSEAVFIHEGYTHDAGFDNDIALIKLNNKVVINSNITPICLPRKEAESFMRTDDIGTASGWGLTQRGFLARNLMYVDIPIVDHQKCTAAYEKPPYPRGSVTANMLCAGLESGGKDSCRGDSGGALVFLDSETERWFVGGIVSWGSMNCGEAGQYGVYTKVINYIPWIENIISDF

Row | SMILES | pKi
1 | Cc1cccc(CNC(=O)[C@H](C)NC(=O)[C@H]2C[C@H](Cc3ccccc3)CN2)c1-n1ncnn1 [compound 1437, (2R,4S)-4-Benzyl-N—((S)-1-((3-methyl-2-(2H-tetrazol-2-yl)benzyl)amino)-1-oxopropan-2-yl)pyrrolidine-2-carboxamide] | 5.60 to 6.30
2 | Cc1nc(N)ccc1CNC(=O)[C@H](C)NC(=O)[C@H]1C[C@@H](c2cccc(CN)c2)CN1 [compound 1291, (2R,4S)—N—((S)-1-(((6-Amino-2-methylpyridin-3-yl)methyl)amino)-1-oxopropan-2-yl)-4-(3-(aminomethyl)phenyl)pyrrolidine-2-carboxamide] | 5.60 to 6.30
3 | C[C@H](NC(=O)[C@H](N)CCc1ccccc1)C(=O)NCc1cc(Cl)ccc1-n1cnnn1 [compound 1325, (R)-2-amino-N—((S)-1-((5-chloro-2-(1H-tetrazol-1-yl)benzyl)amino)-1-oxopropan-2-yl)-4-phenylbutanamide] | 5.60 to 6.30
